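Growth conditions: 96-well plates. Treatment: test compound, 48 hours, 5 concentrations. Analysis: linear interpolation between bracketing concentrations; unreached endpoints set to highest concentration. GI50 marks 50% less growth. TGI marks complete inhibition of growth.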
Columns and labels:
Assay in all cases: NCI tumour cell line growth inhibition, 48 h
[1] = test system: RPMI-8226 leukemia
[2] = test system: NCI-H226 lung
[3] = test system: SK-MEL-2 melanoma
[4] = test system: IGROV1 ovarian
[5] = test system: PC-3 prostate
[6] = test system: SN12C renal
[7] = test system: CAKI-1 renal
[8] = test system: NCI-H460 lung
[9] = test system: HS 578T breast
[10] = test system: BT-549 breast
[11] = test system: KM12 colon
[12] = test system: OVCAR-3 ovarian
[13] = test system: 786-0 renal
[14] = test system: OVCAR-4 ovarian
[15] = test system: SW-620 colon
[16] = test system: NCI-H522 lung
[17] = test system: SR leukemia
[18] = test system: NCI-H23 lung
[19] = test system: SK-MEL-5 melanoma
[20] = test system: K-562 leukemia
[21] = test system: UO-31 renal
[22] = test system: HCT-15 colon
[23] = test system: HL-60(TB) leukemia
[24] = test system: SNB-75 CNS
[25] = test system: SF-539 CNS
[26] = test system: HT29 colon
[27] = test system: SF-295 CNS
[28] = test system: RXF 393 renal
[29] = test system: SF-268 CNS
[30] = test system: A549 NSCLC
[31] = test system: SK-MEL-28 melanoma
[32] = test system: HCC-2998 colon
[33] = test system: MCF7 breast
[34] = test system: A498 renal
[35] = test system: UACC-62 melanoma
[36] = test system: OVCAR-8 ovarian
[37] = test system: COLO 205 colon
[38] = test system: OVCAR-5 ovarian
[39] = test system: MOLT-4 leukemia
[40] = test system: SK-OV-3 ovarian
[41] = test system: CCRF-CEM leukemia
[42] = test system: HOP-62 NSCLC
[43] = test system: MDA-MB-231 breast
[44] = test system: NCI/ADR-RES ovarian
[45] = test system: LOX IMVI melanoma
[46] = test system: TK-10 renal
[47] = test system: UACC-257 melanoma
[48] = test system: M14 melanoma
[49] = test system: SNB-19 CNS
[50] = test system: MDA-MB-435
[51] = test system: EKVX NSCLC
[52] = test system: HCT-116 colon
[53] = test system: U251 CNS
[54] = test system: MALME-3M melanoma
[55] = test system: DU-145 prostate
[56] = test system: T-47D breast
[57] = test system: ACHN renal

O=C1OCC2=C1C(c1cccc(Cl)c1)c1cc3c(cc1N2CCO)CCC3 (stereo not drawn)
GI50 [1]: 38.6 nM
TGI [1]: 10100 nM
GI50 [2]: 52.7 nM
TGI [2]: 912 nM
GI50 [3]: 32.3 nM
TGI [3]: 441 nM
GI50 [4]: 121 nM
TGI [4]: 15600 nM
GI50 [5]: 39.8 nM
TGI [5]: 11800 nM
GI50 [6]: 75.9 nM
TGI [6]: 11900 nM
GI50 [7]: 49.3 nM
TGI [7]: 14700 nM
GI50 [8]: 38 nM
TGI [8]: 4120 nM
GI50 [9]: 45.3 nM
TGI [9]: 22200 nM
GI50 [10]: 166 nM
TGI [10]: 8690 nM
GI50 [11]: 40.2 nM
TGI [11]: 4050 nM
GI50 [12]: 25.3 nM
TGI [12]: 66.6 nM
GI50 [13]: 48.5 nM
TGI [13]: 10800 nM
GI50 [14]: 60.9 nM
TGI [14]: 19500 nM
GI50 [15]: 36.9 nM
TGI [15]: 16400 nM
GI50 [16]: 20.3 nM
TGI [16]: 60.3 nM
GI50 [17]: 60.9 nM
TGI [17]: 21000 nM
GI50 [18]: 48.1 nM
TGI [18]: 14300 nM
GI50 [19]: 29.1 nM
TGI [19]: 280 nM
GI50 [20]: 47.8 nM
TGI [20]: 14400 nM
GI50 [21]: 51.5 nM
TGI [21]: 14200 nM
GI50 [22]: 47.1 nM
TGI [22]: 12600 nM
GI50 [23]: 31.8 nM
TGI [23]: 353 nM
GI50 [24]: 27 nM
TGI [24]: 17700 nM
GI50 [25]: 36.1 nM
TGI [25]: 7530 nM
GI50 [26]: 31.3 nM
TGI [26]: 95 nM
GI50 [27]: 30.1 nM
TGI [27]: 11900 nM
GI50 [28]: 23.8 nM
GI50 [29]: 65.3 nM
TGI [29]: 10500 nM
GI50 [30]: 47.7 nM
TGI [30]: 6450 nM
GI50 [31]: 57.4 nM
TGI [31]: 20200 nM
GI50 [32]: 92.2 nM
TGI [32]: 2930 nM
GI50 [33]: 36.3 nM
TGI [33]: 12900 nM
GI50 [34]: 21.5 nM
TGI [34]: 94.7 nM
GI50 [35]: 42.7 nM
TGI [35]: 15300 nM
GI50 [36]: 57.7 nM
TGI [36]: 2980 nM
GI50 [37]: 40.1 nM
TGI [37]: 309 nM
GI50 [38]: 143 nM
TGI [38]: 18200 nM
GI50 [39]: 192 nM
TGI [39]: 20300 nM
GI50 [40]: 41.4 nM
TGI [40]: 7800 nM
GI50 [41]: 41.6 nM
TGI [41]: 14100 nM
GI50 [42]: 47.8 nM
TGI [42]: 14400 nM
GI50 [43]: 217 nM
TGI [43]: 2210 nM
GI50 [44]: 28.9 nM
TGI [44]: 108 nM
GI50 [45]: 66.1 nM
TGI [45]: 13800 nM
GI50 [46]: 46.4 nM
TGI [46]: 16300 nM
GI50 [47]: 35.4 nM
TGI [47]: 15600 nM
GI50 [48]: 36.6 nM
TGI [48]: 4460 nM
GI50 [49]: 64.4 nM
TGI [49]: 17300 nM
GI50 [50]: 20 nM
TGI [50]: 49.1 nM
GI50 [51]: 295 nM
TGI [51]: 17200 nM
GI50 [52]: 44.7 nM
TGI [52]: 2920 nM
GI50 [53]: 37.2 nM
TGI [53]: 4500 nM
GI50 [54]: 49.4 nM
TGI [54]: 22700 nM
GI50 [55]: 40.6 nM
TGI [55]: 425 nM
GI50 [56]: 41.4 nM
TGI [56]: 23200 nM
GI50 [57]: 84.6 nM
TGI [57]: 14600 nM
